Assay results taken from patent US20130040291A1, “Detection and Quantification of Cellular Stress Response Resolution Pathway Expression and Functionality and the Effects of Agents or Conditions Thereupon” (priority 2011, published 2013).

What was measured:
[1] = tested on: CDNR4 cells; type: cell-based, murine
Experimental: Following the cessation of the calibrated stress conditions exposure, the SR assay raw data is collected in the form of positive and negative wells (or cell growth sites) and in the form of viable or dead cell clones. The next steps of the assay involve expanding viable clones and determining their phenotypes. When the phenotype of interest being investigated in the SR assay is cell survival, the clones can be sub-classified using the testing listed in Table 6. This testing is performed as follows. Clones are removed from the tissue culture vessels in which they were placed before the start of the calibrated stress conditions exposure (using methods appropriate for the cell type), and subdivided into 4 different aliquots. Each aliquot is re-plated in an appropriate tissue culture vessel in medium containing the following. For one aliquot, the medium is growth medium (conditioned medium may be used) only; for a second aliquot the medium is supplemented with guanosine or folic acid at a concentration sufficient to enhance the survival and expansion of HPRT^− clones; for a third aliquot, the medium contains the same level of agent as used for the calibrated stress condition exposure, and the fourth aliquot is placed in HAT-medium containing an amount of aminopterin that is sufficient to induce growth arrest and/or cell death in Phen-HPRT^− cells of the cell type of interest (see above). Cell morphology (where informative for cell behavior and/or gene expression) and cell growth are monitored over the next 2, to 4 days to determine the response of the cells to these differing conditions. Cell clones can be subjected to additional testing as desired to evaluate further endpoints of interest and/or can be cryopreserved for future evaluations.
To subgroup Phen-ah clones as Phen-alt-rev or Phen-alt-irr, a representative group of these clones is tested further by subjecting the clones to repeated rounds of exposure to the calibrated stress conditions. Other stress inducing agents also may be used. Each exposure cycle is followed by a period of time to allow the cells to recover, and thus, to resolve the stress environment. After each exposure round, the percentage of cells that are resistant to the stress inducing agent or condition is recorded. […] The parental cell response that has been used in the examples below is defined as greater than 99% sensitivity to the calibrated stress conditions agent or condition, as evidenced by cell cycle arrest and/or cell death following exposure to the SR induction agent. Other stress response endpoints may be used and will depend upon the nature of the stress inducing agent used; these endpoints are incorporated herein.
The murine mammary epithelial cells designated CDNR4 were grown in their preferred growth medium (42% DMEM, 42% Hams F-12, 12% FBS, 1% 100×L-glutamine, 1% pen-strep, 0.5% to 1% bovine pituitary extract) until approximately 6 million cells were available. Cells were removed from the expansion flasks, counted, and replated at a rate of 500,000 cells per […] flask in growth medium. The flasks were assigned randomly to one of two groups: a vehicle-alone exposure (control group); an ENU-exposure (treated) group. […] For group 1 flasks, a volume of growth medium equal to the volume of ENU was added to the flasks. The cells were exposed to this solution for 1 hour at 37° C.; at the end of this time the solution was removed, the cells were washed with PBS at 37° C., and the cells were re-fed with fresh growth medium.
At the end of 2 weeks, the cells were removed from the flasks with trypsin/EDTA and passed through a 20 to 25 micron pore size sterile Nytran filter. The cell suspension was evaluated by light microscopy for evidence of large clumps, and was re-filtered if necessary using a new sterile Nytran filter of the same size to remove any apparent large clumps of cells. […]

[2] = tested on: CDNR4 cells; experiment: Observation of cells during the adaptive response period after the initial exposure; type: cell-based, murine; conditions: ENU 20 micrograms/ml 1 hour; resolved after 10 to 12 days
Experimental: The murine mammary epithelial cells designated CDNR4 were grown in their preferred growth medium (42% DMEM, 42% Hams F-12, 12% FBS, 1% 100×L-glutamine, 1% pen-strep, 0.5% to 1% bovine pituitary extract) until approximately 6 million cells were available. Cells were removed from the expansion flasks, counted, and replated at a rate of 500,000 cells per […] flask in growth medium. The flasks were assigned randomly to one of two groups: a vehicle-alone exposure (control group); an ENU-exposure (treated) group. For flasks of ENU-exposed cells, ENT was added to the growth medium to achieve a final concentration of 20 micrograms per milliliter. For group 1 flasks, a volume of growth medium equal to the volume of ENU was added to the flasks. The cells were exposed to this solution for 1 hour at 37° C.; at the end of this time the solution was removed, the cells were washed with PBS at 37° C., and the cells were re-fed with fresh growth medium.
This drop in pH recurred within six to 12 hours after re-feeding the cells with fresh growth medium. To reduce this problem, all cells (vehicle-exposed and ENU-exposed) were re-fed every day with medium that was buffered with HEPES at a concentration of 25 millimolar. […] This process of increased cell death among ENU-exposed cells resolved after approximately 10 to 12 days. […]

[3] = ENU 2.0 micrograms/ml 1 hour (so in the source), 2-week expression period, 6-TG stress
[4] = ENU-exposed, average 6 out of 38 clones

CCN(N=O)C(N)=O [ENU, ethylnitrosourea]
CE / mutant frequency of Phen-HPRT^− clones [1, 3]: 160±40 ×10^−6
CE of Phen-alt-irr clones [1, 3]: 690±170 ×10^−6
CE of Phen-alt-rev clones [1, 3]: 180±130 ×10^−6
CE of Phen-parental clones [1, 3]: 95±20 ×10^−6
reduction in total pro-survival pathway function, ENU-exposed versus vehicle-exposed ([1]; ENU 20 micrograms/ml 1 hour): ~3 fold
fCEs for all surviving cell clones (total pro-survival pathway function) ([1]; ENU 20 micrograms/ml 1 hour, 6-TG 30 micrograms/ml 4 days, 600 cells per well): 1210±380 ×10^−6
surviving population with damage, Phen-alt-rev clones included ([1]; ENU-exposed): 92%
average CE for Phen-Hprt- and Phen-alt clones, Phen-alt-rev clones included ([1]; ENU-exposed cells): 1100±350 ×10^−6
combined average fCE of Phen-parental and Phen-alt-rev clones ([1]; ENU-exposed cells): 280±150 ×10^−6
average fCE for Phen-Hprt^− clones and Phen-alt clones together (damage tolerance pathway function) ([1]; ENU-exposed cells, without Phen-alt-rev clones): 870±220 ×10^−6
effect per unit dose of the calibrated stress conditions exposure upon CEs for Phen-parental clones ([1]; ENU-exposed cells, 95÷35 micrograms 6-TG): 2.7 CE/microgram 6-TG
post-calibrated stress condition fCEs ([1]; ENU-exposed cells, SRID-10% of 6-TG (Example 5)): 95 ×10^−6
surviving population with permanent genomic changes ([1]; ENU-exposed, Hprt mutations plus irreversible phenotypic alterations): 75%
Phen-parental clones as share of the final surviving treated cell population ([1]; ENU-exposed, average 3 out of 38 clones): 9%
surviving clones with evidence of DNA damage in the Hprt gene [1, 4]: 15%
surviving clones with reversible phenotypic alterations [1, 4]: 17%
surviving clones with irreversible phenotypic changes (Phen-alt-irr) ([1]; ENU-exposed, average 23 out of 38 clones): 60%
total survival frequency ([1]; ENU-treated cells, calibrated stress conditions at SRID-70% to 80%): approximately 128 ×10^−6
reduction in damage avoidance pathway function, Phen-parental clones only ([1]; treated versus control cells): approximately 25 fold
reduction in damage avoidance pathway function, Phen-parental and Phen-alt-rev together ([1]; versus Phen-parental fCE of control cells): 12 fold
cell death among ENU-exposed flasks during adaptive response period [2]: slight non-significant increase in cell death
